Experiment [1] has as its system genotype 1b (Con1) dicistronic subgenomic replicon. The experiment is described as follows: Transient replicon assay, genotype 1b. In kind it is cell-based, HCV. Particulars: Hepatitis C virus, Huh-7, 96 h; Huh7-Lunet cells transfected with replicon RNA, cultured 4 days, luciferase activity. As to the method: (§1) The transient replicon assay utilizes the genotype 1b (Con1) dicistronic subgenomic replicon. Genotype 1a activity was determined using a chimeric replicon containing the genotype 1b sequence for NS3 through NS5A nonstructural proteins and genotype 1a (H77) sequence for the NS5B region.
(§2) The RNA transcripts were generated using the Megascript T7 kit (Applied Biosystems, Foster City, Calif.). Exponentially growing Huh7-Lunet cells were mixed with 4 μg of replicon RNA and plated into a 96-well plate Gene Pulser MXcell Electroporation System (Bio-Rad, Hercules, Calif.). Electroporation was immediately performed at 250 V and 750 μF capacitance with a single exponential waveform pulse. Transfected cells were transferred to Dulbecco modified Eagle medium in the presence of 10% FBS and plated into 96-well plates with 7,500 cells per well. Compounds at various concentrations were added to the cells after 2 hours and were cultured for 4 days. The cells were lysed with the Bright-Glo Reagent (Promega, Madison, Wis.) and luciferase activity was measured with a luminometer (Wallac 1420 Multilabel HTS Counter Victor 2). The background control was replicon cells treated with 100 nM BILN-2061, an inhibitor of the HCV protease. Dose responses were performed in triplicate and the values were averaged. All experiments were repeated at least three times to verify the reproducibility.
(§3) The EC50 values were determined using a standard four-parameter dose response equation.

For experiment [2], the system named is chimeric replicon containing the genotype 1b sequence for NS3 through NS5A and genotype 1a (H77) sequence for the NS5B region. Kind of experiment: Transient replicon assay, genotype 1a chimeric replicon. In kind it is cell-based, HCV. To be noted: read-out: EC50 1a; Huh7-Lunet cells transfected with chimeric replicon RNA, cultured 4 days, luciferase activity. As to the method:
as §1, §2, §3
Background: A replicon is a self-replicating genome or part of one, used to study replication in cells.

Structures are written as SMILES.

Usually EC50 stands for the concentration needed to bring the measured effect to its halfway point. Take `CS(=O)(=O)Nc1ccc2c(c1)S(=O)(=O)N=C(C1=C(O)[C@@H]3C4C5CC6C4C6C5[C@@H]3N(Cc3ccc(F)cc3)C1=O)N2` (mixture of isomers) [Example 7, rac-N-{3-[(1R,9S)-10-[(4-Fluorophenyl)methyl]-13-hydroxy-11-oxo-10-azapentacyclo[7.4.0.0^2,7.0^3,5.0^4,8]tridec-12-en-12-yl]-1,1-dioxo-4H-1λ^6,2,4-benzothiadiazin-7-yl}methanesulfonamide]: the half-maximal effective concentration (EC50) amounted to 4 nM in experiment [1] and 137 nM in experiment [2].

Values taken from patent publication US20120321590A1, “BRIDGED POLYCYCLIC COMPOUNDS” (priority 2011, published 2012).
